Measurements as given in ChEMBL document CHEMBL3885861, “Open TG-GATES”.

Species: Rattus norvegicus
Experiment: Open TG-GATES - Regimen: Single
Format: toxicity, organism-based, Sprague-Dawley
Design: regimen Single, gender Male, age 6 weeks
Conditions: in vivo, po, 100 mg/kg, route gavage, dose level Low; for APTT / Bas / Eos / Fbg / Hb / Ht / Lym / MCH / MCHC / MCV / Mono / Neu / PT / Plat / RBC / Ret / WBC: tissue Blood; for KIDNEY_L / KIDNEY_R / KIDNEY_TOTAL: tissue Kidney; for LIVER: tissue Liver; for A/G / ALP / ALT / AST / BUN / CRE / Ca / Cl / DBIL / GLC / IP / K / LDH / Na / PL / RALB / TBIL / TC / TG / TP / gamma-GTP: tissue Plasma

What does the source list for `CC(=O)Nc1ccc2c(c1)Cc1ccccc1-2` [2-ACETYLAMINOFLUORENE]?
TERMINAL_BW (3 h): 222.2 g; APTT (3 h): 19.4 s; Bas (3 h): 0.8%; Eos (3 h): 1%; Fbg (3 h): 228.6 mg/dL; Hb (3 h): 14.1 g/dL; Ht (3 h): 40.7%; Lym (3 h): 76.4%; MCH (3 h): 21.6 pg; MCHC (3 h): 34.7%; MCV (3 h): 62.3 fL; Mono (3 h): 2%; Neu (3 h): 19.2%; PT (3 h): 11.6 s; Plat (3 h): 114.3 x10_4/uL; RBC (3 h): 653.2 x10_4/ul; Ret (3 h): 7%; WBC (3 h): 73.8 x10_2/uL; KIDNEY_L (3 h): 1 g; KIDNEY_R (3 h): 1 g; KIDNEY_TOTAL (3 h): 2 g; LIVER (3 h): 10.4 g; A/G (3 h): 1.8; ALP (3 h): 1019.4 IU/L; ALT (3 h): 37.6 IU/L; AST (3 h): 77 IU/L; BUN (3 h): 13.2 mg/dL; CRE (3 h): 0.4 mg/dL; Ca (3 h): 10.7 mg/dL; Cl (3 h): 103.4 meq/L; DBIL (3 h): 0.07 mg/dL; GLC (3 h): 212.8 mg/dL; IP (3 h): 10.8 mg/dL; K (3 h): 4 meq/L; LDH (3 h): 203.8 IU/L; Na (3 h): 141.4 meq/L; PL (3 h): 151 mg/dL; RALB (3 h): 3.6 g/dL; TBIL (3 h): 0.1 mg/dL; TC (3 h): 92.6 mg/dL; TG (3 h): 45.8 mg/dL; TP (3 h): 5.6 g/dL; gamma-GTP (3 h): 1 IU/L; TERMINAL_BW (6 h): 219.9 g; APTT (6 h): 20.9 s; Bas (6 h): 0.4%; Eos (6 h): 1%; Fbg (6 h): 221.6 mg/dL; Hb (6 h): 13.9 g/dL; Ht (6 h): 40.1%; Lym (6 h): 81.6%; MCH (6 h): 21.3 pg; MCHC (6 h): 34.6%; MCV (6 h): 61.5 fL; Mono (6 h): 2.4%; Neu (6 h): 14.2%; PT (6 h): 12.2 s; Plat (6 h): 132.9 x10_4/uL; RBC (6 h): 652 x10_4/ul; Ret (6 h): 7%; WBC (6 h): 82.3 x10_2/uL; KIDNEY_L (6 h): 1 g; KIDNEY_R (6 h): 1 g; KIDNEY_TOTAL (6 h): 2 g; LIVER (6 h): 9.9 g; A/G (6 h): 1.6; ALP (6 h): 792.8 IU/L; ALT (6 h): 31.6 IU/L; AST (6 h): 70.6 IU/L; BUN (6 h): 10 mg/dL; CRE (6 h): 0.4 mg/dL; Ca (6 h): 10.5 mg/dL; Cl (6 h): 101.8 meq/L; DBIL (6 h): 0.064 mg/dL; GLC (6 h): 195.6 mg/dL; IP (6 h): 9.4 mg/dL; K (6 h): 4.1 meq/L; LDH (6 h): 169 IU/L; Na (6 h): 140.4 meq/L; PL (6 h): 135.6 mg/dL; RALB (6 h): 3.4 g/dL; TBIL (6 h): 0.1 mg/dL; TC (6 h): 79.2 mg/dL; TG (6 h): 45.2 mg/dL; TP (6 h): 5.6 g/dL; gamma-GTP (6 h): 1 IU/L; TERMINAL_BW (9 h): 218.6 g; APTT (9 h): 19 s; Bas (9 h): 0.6%; Eos (9 h): 0.8%; Fbg (9 h): 227.6 mg/dL; Hb (9 h): 14.1 g/dL; Ht (9 h): 40.8%; Lym (9 h): 72.8%; MCH (9 h): 21.4 pg; MCHC (9 h): 34.5%; MCV (9 h): 62.2 fL; Mono (9 h): 3%; Neu (9 h): 22%; PT (9 h): 12.9 s; Plat (9 h): 124.3 x10_4/uL; RBC (9 h): 655 x10_4/ul; Ret (9 h): 6.7%; WBC (9 h): 79.5 x10_2/uL; KIDNEY_L (9 h): 0.9 g; KIDNEY_R (9 h): 0.9 g; KIDNEY_TOTAL (9 h): 1.9 g; LIVER (9 h): 9.5 g; A/G (9 h): 1.5; ALP (9 h): 754.8 IU/L; ALT (9 h): 31 IU/L; AST (9 h): 67.2 IU/L; BUN (9 h): 10.8 mg/dL; CRE (9 h): 0.4 mg/dL; Ca (9 h): 10.5 mg/dL; Cl (9 h): 104.2 meq/L; DBIL (9 h): 0.064 mg/dL; GLC (9 h): 211.2 mg/dL; IP (9 h): 9.1 mg/dL; K (9 h): 3.8 meq/L; LDH (9 h): 230 IU/L; Na (9 h): 141.2 meq/L; PL (9 h): 124.8 mg/dL; RALB (9 h): 3.4 g/dL; TBIL (9 h): 0.1 mg/dL; TC (9 h): 65 mg/dL; TG (9 h): 56.8 mg/dL; TP (9 h): 5.7 g/dL; gamma-GTP (9 h): 1 IU/L; TERMINAL_BW (24 h): 221.4 g; APTT (24 h): 21.7 s; Bas (24 h): 0.2%; Eos (24 h): 1%; Fbg (24 h): 215.6 mg/dL; Hb (24 h): 14.6 g/dL; Ht (24 h): 42%; Lym (24 h): 76.8%; MCH (24 h): 22.2 pg; MCHC (24 h): 34.7%; MCV (24 h): 63.8 fL; Mono (24 h): 5%; Neu (24 h): 16.6%; PT (24 h): 14.5 s; Plat (24 h): 140.8 x10_4/uL; RBC (24 h): 658.2 x10_4/ul; Ret (24 h): 6.5%; WBC (24 h): 91.5 x10_2/uL; KIDNEY_L (24 h): 1 g; KIDNEY_R (24 h): 1 g; KIDNEY_TOTAL (24 h): 2.1 g; LIVER (24 h): 11.2 g; A/G (24 h): 1.8; ALP (24 h): 1020 IU/L; ALT (24 h): 37.8 IU/L; AST (24 h): 74 IU/L; BUN (24 h): 17.2 mg/dL; CRE (24 h): 0.4 mg/dL; Ca (24 h): 10.4 mg/dL; Cl (24 h): 105.4 meq/L; DBIL (24 h): 0.1 mg/dL; GLC (24 h): 187.8 mg/dL; IP (24 h): 8.4 mg/dL; K (24 h): 4.6 meq/L; LDH (24 h): 207.4 IU/L; Na (24 h): 140.6 meq/L; PL (24 h): 120.8 mg/dL; RALB (24 h): 3.3 g/dL; TBIL (24 h): 0.2 mg/dL; TC (24 h): 52 mg/dL; TG (24 h): 120.6 mg/dL; TP (24 h): 5.1 g/dL; gamma-GTP (24 h): 1.4 IU/L
